Source: patent US20230183592A1, “[…] ORGANO[…] AS NON-[…]-WEAR AGENTS” (priority 2020, published 2023)
Where two headings read alike, the source gives them in different places.

Assays:
[1] = sum of five 0/1 risk factors, 0 (lack of risk) to 5 (very high multiple risk)
Source text: The last column corresponds to a risk level score for the safety of these molecules for use in oils such as turbine oils and their alleged cabin toxicity. […] A 0 value indicates a lack of risk, and a 5 value indicates a very high multiple risk. For each risk, a factor 0 or 1 is assigned based on whether the value is above or below a threshold.

[2] = European Chemicals Agency website; cited from earlier work
[3] = target: T1, BuChE from equine serum (eqBuChE) (Equus caballus, UniProt P81908); test: biochemical; assay type: biochemical
T1 construct: The BuChE freeze-dried from equine serum (eqBuChE, Sigma Aldrich); purchased Sigma Aldrich; host or cells: equine serum (natural source)
T1 sequence (P81908 whole entry): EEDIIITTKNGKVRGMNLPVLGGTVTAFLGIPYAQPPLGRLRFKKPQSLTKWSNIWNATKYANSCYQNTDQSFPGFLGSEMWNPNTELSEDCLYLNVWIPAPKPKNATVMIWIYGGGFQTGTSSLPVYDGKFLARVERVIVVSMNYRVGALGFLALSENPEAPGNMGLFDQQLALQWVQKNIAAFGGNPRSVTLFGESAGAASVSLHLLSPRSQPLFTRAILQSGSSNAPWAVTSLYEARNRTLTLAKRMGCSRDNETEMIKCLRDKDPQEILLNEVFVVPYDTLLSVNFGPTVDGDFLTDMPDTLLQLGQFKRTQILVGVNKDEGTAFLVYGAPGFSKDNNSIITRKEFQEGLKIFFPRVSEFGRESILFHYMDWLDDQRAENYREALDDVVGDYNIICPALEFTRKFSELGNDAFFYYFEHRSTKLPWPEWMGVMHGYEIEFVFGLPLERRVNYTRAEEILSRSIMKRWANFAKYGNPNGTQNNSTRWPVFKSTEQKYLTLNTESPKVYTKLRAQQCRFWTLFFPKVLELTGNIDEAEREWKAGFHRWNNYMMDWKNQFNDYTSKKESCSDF
Method: (§1) In the extent that the toxic activity of TCP especially involves its action on cholinesterases, the effect of the compounds used according to the invention, as well as comparative compounds, on two cholinesterases was studied. The required concentration values of each compound to inhibit 50% of the activity of two cholinesterases were measured.
(§2) The acetylthiocholine and butyrylthiocholine iodide, and 5,5-dithiobis (2-nitrobenzoic) acid (DTNB) were purchased from Sigma Aldrich (Steinheim, Germany).
(§3) In the procedure, 100 μL of 0.3 mM DTNB dissolved in phosphate buffer, pH 7.4, were added in 96-well plates, followed by 50 μL solution of the test compound and 50 μL enzyme (final 0.05 U). After 5 minutes of pre-incubation at 25° C., the reaction was initiated by injecting 50 μL of 0.1 mM acetyl or butyryl thiocholine iodide solution. The acetyl or butyryl thiocholine hydrolysis was followed by the formation of yellow 5-thio 2-nitrobenzoate anion as the product of the reaction of DTNB with the thiocholine released by the enzymatic hydrolysis of the acetyl or butyryl thiocholine, at a wavelength of 412 nm, using a microplate reader (Synergy 2, Biotek, Colmar, France). The compounds to be tested were dissolved to 5×10^−3M in analytical grade DMSO. Donepezil or tacrine were used as reference standards. The absorption increase rate at 412 nm was determined 4 minutes after the addition of the acetyl or butyryl thiocholine iodide solution. The tests were carried out with a blank containing all the compounds except the acetyl or butyryl thiocholine in order to take into account non-enzymatic reactions.
(§4) The percentage of inhibition due to the presence of the test compounds was calculated using the following expression: […]
(§5) wherein vi is the rate calculated in the presence of the inhibitor, and v0 is the enzymatic activity.
(§6) All the experiments were carried out in n=3.

[4] = target: T2, human erythrocyte AChE (hAChE) (Homo sapiens, UniProt P22303); test: biochemical; assay type: biochemical
T2 construct: The human erythrocyte AChE (hAChE, aqueous buffer solution); purchased Sigma Aldrich; host or cells: human erythrocytes (natural source)
T2 sequence (P22303 32-617 isoform P22303-2 limits assumed): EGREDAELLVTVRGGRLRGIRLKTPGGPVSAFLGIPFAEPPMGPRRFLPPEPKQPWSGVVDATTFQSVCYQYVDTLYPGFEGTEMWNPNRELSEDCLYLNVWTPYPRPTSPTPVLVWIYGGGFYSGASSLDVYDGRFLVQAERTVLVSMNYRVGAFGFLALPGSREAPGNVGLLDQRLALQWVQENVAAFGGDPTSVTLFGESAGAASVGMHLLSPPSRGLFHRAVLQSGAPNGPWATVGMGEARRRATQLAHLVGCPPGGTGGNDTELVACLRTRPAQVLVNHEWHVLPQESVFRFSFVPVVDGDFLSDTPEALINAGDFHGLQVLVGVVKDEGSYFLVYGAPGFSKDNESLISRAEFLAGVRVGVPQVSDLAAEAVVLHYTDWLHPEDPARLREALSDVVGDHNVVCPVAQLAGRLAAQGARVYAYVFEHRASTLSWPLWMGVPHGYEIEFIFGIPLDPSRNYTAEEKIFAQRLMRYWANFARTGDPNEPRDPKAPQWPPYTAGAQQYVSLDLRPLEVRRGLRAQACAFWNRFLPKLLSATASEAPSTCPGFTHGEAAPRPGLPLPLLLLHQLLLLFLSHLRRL
Method: as §1, §2, §3, §4, §5, §6

[5] = equine serum BuChE, Ellman method, 5 min pre-incubation at 25° C., n=3

| Compound | Risk level [1] | ECHA's official data [2] | further results |
| --- | --- | --- | --- |
| CCCCC(CC)COP(=O)(Oc1ccccc1)Oc1ccccc1 (stereo not shown) [Compound A, 2-ethylhexyl diphenylphosphate] | 4 | No CMR, no acute toxicity | – |
| Trixylyl phosphate [Compound E] | ≥2 | PBT* Reprotoxic | – |
| CC(C)CCCCCCCOP(=O)(Oc1ccccc1)Oc1ccccc1 [Compound 1, isodecyl diphenylphosphate] | 0 | – | IC50 [3]: 93 µM; IC50 [4]: 38.4 µM |
| CCCCOC(=O)CC(SP(=S)(OCC(CC)CCCC)OCC(CC)CCCC)C(=O)OCCCC (stereo not shown) [Compound N, Dibutyl [[bis[(2-ethylhexyl)oxy]phosphinothioyl]thio]succinate] | ≥1 | No CMR, no acute toxicity | IC50 [3]: 19 µM; IC50 [4]: 33.1 µM |
| CC(C)COP(=O)(OCC(C)C)OCC(C)C [Compound L, Tri(isobutyl)phosphate] | 4 | No CMR, no acute toxicity | – |
| Cc1ccccc1OP(=O)(Oc1ccccc1C)Oc1ccccc1C [Compound B, Tri(ortho-cresyl)phosphate] | 5 | – | – |
| Cc1ccc(OP(=O)(Oc2ccc(C)cc2)Oc2ccc(C)cc2)cc1 [Compound D, Tri(para-cresyl)phosphate] | 3 | – | – |
| NP(=O)(Oc1ccccc1)Oc1ccccc1 [Compound K, Diphenyl phosphoroamidate] | 4 | – | – |
| O=P(Oc1ccccc1)(Oc1ccccc1)Oc1ccccc1 [Compound I1, tri phenyl phosphate] | 4 | No CMR, no acute toxicity | IC50 [3]: 42.9 µM; IC50 [4]: 33.1 µM |
| CC(C)(C)c1ccc(OP(=O)(Oc2ccc(C(C)(C)C)cc2)Oc2ccc(C(C)(C)C)cc2)cc1 [Compound I2, Tri(p-tert-butylphenyl)phosphate] | 3 | – | – |
| isononyl diphenylphosphate [Compound Q] | 4 | – | – |
| CCCCC(CC)COP(=O)(OCC(CC)CCCC)OCC(CC)CCCC (stereo not shown) [Compound M, Tris(2-ethylhexyl)phosphate] | ≥2 | No CMR, no acute toxicity | IC50 ([3]; equine serum BuChE, Ellman method, 5 min pre-incubation at 25° C., n=3, read-out: IC50 eqBuChE (converted)): 279 µM; IC50 ([4]; human erythrocyte AChE, Ellman method, 5 min pre-incubation at 25° C., n=3, read-out: IC50 hAChE (converted)): 28.1 µM |
| isododecyl diphenylphosphate [Compound 4] | 0 | – | – |
| Saligenin cresyl phosphate [Compound J] | 4 | – | IC50 eqBuChE [3, 5]: 0.7 µg/mL |
| O=P(Oc1c(F)cccc1F)(Oc1c(F)cccc1F)Oc1c(F)cccc1F [Compound F, Tri(2,6-difluorophenyl)phosphate] | ≥3 | – | – |
| Tricresyl phosphate [Compound P] | 4 | PBT* Reprotoxic | IC50 eqBuChE [3, 5]: 0.7 µg/mL; IC50 hAChE ([4]; human erythrocyte AChE, Ellman method, 5 min pre-incubation at 25° C., n=3): 16.9 µg/mL |
| Cc1cccc(OP(=O)(Oc2cccc(C)c2)Oc2cccc(C)c2)c1 [Compound C, Tri(meta-cresyl)phosphate] | 5 | – | – |
| Tri(4-isopropylbenzoate)phosphate [Compound G] | 2 | – | – |
| CC(C)(C)c1ccc(OP(=O)(Oc2ccccc2)Oc2ccc(C(C)(C)C)cc2)cc1 [Compound H, di(p-tertbutylphenyl)phenylphosphate] | 3 | – | – |
